Assay results as given in patent publication US6737383B1, “Herbicidal oxadiazolidines” (priority 1999, dated 2004).

Tests used:
morningglory = assay: Test B pre/postemergence morningglory; format: in vivo, Ipomoea hederacea
In short: (§1)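 Response is a visual 0-to-10 score relative to untreated plants, where 0 means no effect and 10 means complete control, taken twelve to sixteen days after application. Treatments went onto soil at planting and onto foliage of 1- to 4-leaf plants, using a surfactant-containing non-phytotoxic solvent.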

pigweed = assay: Test B pre/postemergence pigweed; format: in vivo, Amaranthus retroflexus
In short: as §1

bedstraw = assay: Test B pre/postemergence bedstraw; format: in vivo, Galium aparine
In short: as §1

rape = assay: Test B pre/postemergence rape; format: in vivo, Brassica napus
In short: as §1

cocklebur = assay: Test B pre/postemergence cocklebur; format: in vivo, Xanthium strumarium
In short: as §1

rice = assay: Test B flood test rice; format: in vivo, Oryza sativa
In short: (§2)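 Plants were grown to the 2-leaf stage before treatment with test chemical, then held in a greenhouse for twelve to sixteen days. Injury was visually rated against untreated controls on a 0–10 scale, where 0 is no effect and 10 is complete control.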

velvetleaf = assay: Test B pre/postemergence velvetleaf; format: in vivo, Abutilon theophrasti
In short: as §1

wild oat = assay: Test B pre/postemergence wild oat; format: in vivo, Avena fatua
In short: as §1

purple nutsedge = assay: Test B pre/postemergence purple nutsedge; format: in vivo, Cyperus rotundus
In short: as §1

smallflower flatsedge = assay: Test B flood test smallflower flatsedge; format: in vivo, Cyperus difformis
In short: as §2

surinam grass = assay: Test B pre/postemergence surinam grass; format: in vivo, Brachiaria decumbens
In short: as §1

wheat = assay: Test B pre/postemergence wheat; format: in vivo, Triticum aestivum
In short: as §1

duck salad = assay: Test B flood test duck salad; format: in vivo, Heteranthera limosa
In short: as §2

blackgrass = assay: Test B pre/postemergence blackgrass; format: in vivo, Alopecurus myosuroides
In short: as §1

bamyardgrass = assay: Test B flood test barnyardgrass; format: in vivo, Echinochloa crus-galli
In short: as §2

corn = assay: Test B pre/postemergence corn; format: in vivo, Zea mays
In short: as §1

[1] = Postemergence, Rate 62 g/ha, scale 0 to 10, 0 is no effect, 10 is complete control
[2] = Postemergence, Rate 250 g/ha, scale 0 to 10, 0 no effect, 10 complete control
[3] = Preemergence, Rate 62 g/ha, scale 0 to 10 (0 no effect, 10 complete control)
[4] = Preemergence, Rate 125 g/ha, scale 0 to 10 (0 no effect, 10 complete control)
[5] = Preemergence, Rate 250 g/ha, scale of 0 to 10 where 0 is no effect and 10 is complete control
[6] = Preemergence, Rate 500 g/ha, scale 0 (no effect) to 10 (complete control)
[7] = Rate 125 g/ha, Postemergence, scale 0 to 10, 0 no effect, 10 complete control
[8] = Rate 500 g/ha, Postemergence, scale 0 to 10, 0 no effect, 10 complete control
[9] = Rate 125 g/ha, Postemergence section (flood test species), scale 0 to 10, 0 no effect, 10 complete control
[10] = Rate 500 g/ha, listed under Postemergence (flood test species), scale 0 to 10, 0 no effect, 10 complete control
[11] = flood test, listed under Postemergence, Rate 250 g/ha, scale 0 to 10, 0 no effect, 10 complete control

SMILES: COc1cccc(C)c1-n1c(=O)on(C(=O)N(c2ccccc2)C(C)C)c1=O [Compound 73]
- Morningglory plant response rating (morningglory; [1]): 3
- Morningglory plant response rating (morningglory; [2]): 4
- Morningglory plant response rating (morningglory; [3]): 0
- Plant response rating, Morningglory (morningglory; [4]): 0
- Plant response rating, Morningglory (morningglory; [5]): 0
- Morningglory plant response rating (morningglory; [6]): 0
- Morningglory plant response rating (morningglory; [7]): 3
- Morningglory plant response rating (morningglory; [8]): 4
- Redroot pigweed plant response rating (pigweed; [1]): 0
- Redroot pigweed plant response rating (pigweed; [2]): 0
- Redroot pigweed plant response rating (pigweed; [3]): 0
- Plant response rating, Redroot pigweed (pigweed; [4]): 0
- Plant response rating, Redroot pigweed (pigweed; [5]): 0
- Redroot pigweed plant response rating (pigweed; [6]): 0
- Redroot pigweed plant response rating (pigweed; [7]): 0
- Redroot pigweed plant response rating (pigweed; [8]): 0
- Bedstraw plant response rating (bedstraw; [1]): 0
- Bedstraw plant response rating (bedstraw; [2]): 7
- Bedstraw plant response rating (bedstraw; [3]): 0
- Plant response rating, Bedstraw (bedstraw; [4]): 0
- Plant response rating, Bedstraw (bedstraw; [5]): 0
- Bedstraw plant response rating (bedstraw; [6]): 0
- Bedstraw plant response rating (bedstraw; [7]): 0
- Bedstraw plant response rating (bedstraw; [8]): 7
- Rape plant response rating (rape; [1]): 0
- Rape plant response rating (rape; [2]): 0
- Rape plant response rating (rape; [3]): 0
- Plant response rating, Rape (rape; [4]): 0
- Plant response rating, Rape (rape; [5]): 0
- Rape plant response rating (rape; [6]): 0
- Rape plant response rating (rape; [7]): 0
- Cocklebur plant response rating (cocklebur; [1]): 0
- Cocklebur plant response rating (cocklebur; [2]): 0
- Cocklebur plant response rating (cocklebur; [3]): 0
- Plant response rating, Cocklebur (cocklebur; [4]): 0
- Plant response rating, Cocklebur (cocklebur; [5]): 0
- Cocklebur plant response rating (cocklebur; [6]): 0
- Cocklebur plant response rating (cocklebur; [7]): 0
- Cocklebur plant response rating (cocklebur; [8]): 2
- Rice plant response rating (rice; [1]): 0
- Rice plant response rating (rice; [9]): 0
- Rice plant response rating (rice; [10]): 0
- Rice plant response rating (rice; [11]): 0
- Velvetleaf plant response rating (velvetleaf; [1]): 0
- Velvetleaf plant response rating (velvetleaf; [2]): 4
- Velvetleaf plant response rating (velvetleaf; [3]): 0
- Plant response rating, Velvetleaf (velvetleaf; [4]): 0
- Plant response rating, Velvetleaf (velvetleaf; [5]): 0
- Velvetleaf plant response rating (velvetleaf; [6]): 0
- Velvetleaf plant response rating (velvetleaf; [7]): 3
- Velvetleaf plant response rating (velvetleaf; [8]): 5
- Wild oats plant response rating (wild oat; [1]): 0
- Wild oats plant response rating (wild oat; [2]): 2
- Wild oats plant response rating (wild oat; [3]): 0
- Plant response rating, Wild oats (wild oat; [4]): 0
- Plant response rating, Wild oats (wild oat; [5]): 0
- Wild oats plant response rating (wild oat; [6]): 0
- Wild oats plant response rating (wild oat; [7]): 0
- Wild oats plant response rating (wild oat; [8]): 6
- Nutsedge plant response rating (purple nutsedge; [1]): 0
- Nutsedge plant response rating (purple nutsedge; [2]): 0
- Nutsedge plant response rating (purple nutsedge; [3]): 0
- Plant response rating, Nutsedge (purple nutsedge; [4]): 0
- Plant response rating, Nutsedge (purple nutsedge; [5]): 0
- Nutsedge plant response rating (purple nutsedge; [6]): 0
- Nutsedge plant response rating (purple nutsedge; [7]): 0
- Nutsedge plant response rating (purple nutsedge; [8]): 0
- S. Flatsedge plant response rating (smallflower flatsedge; [1]): 0
- S. Flatsedge plant response rating (smallflower flatsedge; [9]): 0
- S. Flatsedge plant response rating (smallflower flatsedge; [10]): 0
- S. Flatsedge plant response rating (smallflower flatsedge; [11]): 0
- B. signalgrass plant response rating (surinam grass; [1]): 0
- B. signalgrass plant response rating (surinam grass; [2]): 0
- B. signalgrass plant response rating (surinam grass; [3]): 0
- Plant response rating, B. signalgrass (surinam grass; [4]): 0
- Plant response rating, B. signalgrass (surinam grass; [5]): 0
- B. signalgrass plant response rating (surinam grass; [6]): 0
- B. signalgrass plant response rating (surinam grass; [7]): 0
- B. signalgrass plant response rating (surinam grass; Rate 500 g/ha, Postemergence, scale of 0 to 10 where 0 is no effect and 10 is complete control): 3
- Wheat plant response rating (wheat; [1]): 0
- Wheat plant response rating (wheat; [2]): 0
- Wheat plant response rating (wheat; [3]): 0
- Plant response rating, Wheat (wheat; [4]): 0
- Plant response rating, Wheat (wheat; [5]): 0
- Wheat plant response rating (wheat; [6]): 0
- Wheat plant response rating (wheat; [7]): 0
- Wheat plant response rating (wheat; [8]): 2
- Ducksalad plant response rating (duck salad; [1]): 0
- Ducksalad plant response rating (duck salad; [9]): 0
- Ducksalad plant response rating (duck salad; [10]): 0
- Ducksalad plant response rating (duck salad; [11]): 0
- Blackgrass plant response rating (blackgrass; [1]): 0
- Blackgrass plant response rating (blackgrass; [2]): 0
- Blackgrass plant response rating (blackgrass; [3]): 0
- Plant response rating, Blackgrass (blackgrass; [4]): 0
- Plant response rating, Blackgrass (blackgrass; [5]): 0
- Blackgrass plant response rating (blackgrass; [6]): 0
- Blackgrass plant response rating (blackgrass; [7]): 0
- Blackgrass plant response rating (blackgrass; [8]): 2
- Barnyardgrass plant response rating (bamyardgrass; [1]): 0
- Barnyardgrass plant response rating (bamyardgrass; [9]): 0
- Barnyardgrass plant response rating (bamyardgrass; [10]): 0
- Barnyardgrass plant response rating (bamyardgrass; [11]): 0
- Corn plant response rating (corn; [1]): 0
- Corn plant response rating (corn; [2]): 0
- Corn plant response rating (corn; [3]): 0
- Plant response rating, Corn (corn; [4]): 0
- Plant response rating, Corn (corn; [5]): 0
- Corn plant response rating (corn; [6]): 0
- Corn plant response rating (corn; [7]): 0
- Corn plant response rating (corn; [8]): 0
